From patent US12091409B2, “Ether linked triazoles as NRF2 activators” (ASTEX THERAPEUTICS LIMITED, priority 2016, dated 2024)

tested on: NQO1 specific enzyme activity in BEAS-2B cells (marker for NRF2 activation); test: BEAS-2B NQO1 MTT Assay; assay type: cell-based; settings: Homo sapiens, BEAS-2B, 48 h, NQO1 specific activity induction, 48 hours with compound
Source text: NAD(P)H:quinone oxidoreductase 1 (NQO1), also called DT diaphorase, is a homodimeric FAD-containing enzyme that catalyzes obligatory NAD(P)H-dependent two-electron reductions of quinones and protects cells against the toxic and neoplastic effects of free radicals and reactive oxygen species arising from one-electron reductions. The transcription of NQO1 is finely regulated by NRF2, and thus NQO1 activity is a good marker for NRF2 activation. On day one, frozen BEAS-2B cells (ATCC) were thawed in a water bath, counted, and re-suspended at a concentration of 250,000 cells/mL. Fifty microliters of cells were plated in 384 well black clear-bottomed plates. Plates were incubated at 37° C., 5% CO2 overnight. On day two, plates were centrifuged and 50 nL of compound or controls were added to the cells. Plates were then incubated at 37° C., 5% CO2 for 48 hours. On day four, medium was aspirated from the plate and crude cell lysates were made by adding 13 uL of 1× Cell Signaling Technologies lysis buffer with 1 Complete, Mini, EDTA-free Protease Inhibitor Tablet (Roche) for each 10 mL of lysis buffer. After lysis plates were incubated for 20 minutes at room temperature. Two microliters of lysate were removed for use in Cell Titer Glo assay (Promega) and MTT cocktail was prepared (Prochaska et. al. 1998) for measurement of NQO1 activity. Fifty microliters of MTT cocktail was added to each well, plate was centrifuged, and analyzed on an Envision plate reader (Perkin Elmer) using Absorbance 570 nm label for 30 minutes. Product formation was measured kinetically and the pEC50 of NQO1 specific activity induction was calculated by plotting the change in absorbance (Delta OD/min) versus the log of compound concentration followed by 3-parameter fitting.
pEC50 is the negative log of the EC50.
EC50s<1 nM (+++++), EC50s 1 nM-10 nM (++++), EC50s 10 nM-100 nM (+++), EC50s 100 nM-1 uM (++), EC50s 1 uM-10 uM (+); EC50s>10 uM (−), or were not determined (ND).

| Structure (SMILES) | EC50 |
| --- | --- |
| CC[C@@H]1CN(Cc2cc(C(OCc3cn(Cc4cccc(Cn5cc(CO)nn5)c4)nn3)C(C)(C)C(=O)O)ccc2C)S(=O)(=O)c2ccccc2O1 (stereo partly drawn) [Example 28, 3-(3-(((R)-4-ethyl-1,1-dioxido-3,4-dihydro-2H-benzo[b][1,4,5]oxathiazepin-2-yl)methyl)-4-methylphenyl)-3-((1-(3-((4-(hydroxymethyl)-1H-1,2,3-triazol-1-yl)methyl)benzyl)-1H-1,2,3-triazol-4-yl)methoxy)-2,2-dimethyl-propanoic acid] | 10 to 100 nM |
| Cc1cc(Cn2cc(CO)nn2)cc(Cn2cc(COC(c3ccc(C)c(CN4C[C@@H](C)Oc5ccccc5S4(=O)=O)c3)C(C)(C)C(=O)O)nn2)c1 (stereo partly drawn) [Example 29, 3-((1-(3-((4-(Hydroxy-methyl)-1H-1,2,3-triazol-1-yl)methyl)-5-methylbenzyl)-1H-1,2,3-triazol-4-yl)methoxy)-2,2-dimethyl-3-(4-methyl-3-(((R)-4-methyl-1,1-dioxido-3,4-dihydro-2H-benzo[b][1,4,5]oxathiazepin-2-yl)methyl)phenyl)propanoic acid] | 10 to 100 nM |
| Cc1ccc(C(OCc2cn(CC3CCN(C(=O)C4CCCCC4)CC3)nn2)C(C)(C)C(=O)O)cc1CN1C[C@@H](C)Oc2ccccc2S1(=O)=O (stereo partly drawn) [Example 30, 3-((1-((1-(Cyclohexanecarbonyl)piperidin-4-yl)methyl)-1H-1,2,3-triazol-4-yl)methoxy)-2,2-dimethyl-3-(4-methyl-3-(((R)-4-methyl-1,1-dioxido-3,4-dihydro-2H-benzo[b][1,4,5]oxathiazepin-2-yl)methyl)phenyl)propanoic acid] | 1 to 10 nM |
| Cc1ccc(C(OCc2cn(CC3CCN(C(=O)c4ccccc4)CC3)nn2)C(C)(C)C(=O)O)cc1CN1C[C@@H](C)Oc2ccccc2S1(=O)=O (stereo partly drawn) [Example 31, 3-((1-((1-Benzoylpiperidin-4-yl)methyl)-1H-1,2,3-triazol-4-yl)methoxy)-2,2-dimethyl-3-(4-methyl-3-(((R)-4-methyl-1,1-dioxido-3,4-dihydro-2H-benzo[b][1,4,5]oxathiazepin-2-yl)methyl)phenyl)propanoic acid] | 10 to 100 nM |
| CC(=O)N1CCC(Cn2cc(COC(c3ccc(C)c(CN4C[C@@H](C)Oc5ccccc5S4(=O)=O)c3)C(C)(C)C(=O)O)nn2)CC1 (stereo partly drawn) [Example 32, 3-((1-((1-Acetylpiperidin-4-yl)methyl)-1H-1,2,3-triazol-4-yl)methoxy)-2,2-dimethyl-3-(4-methyl-3-(((R)-4-methyl-1,1-dioxido-3,4-dihydro-2H-benzo[b][1,4,5]oxathiazepin-2-yl)methyl)phenyl)propanoic acid] | 10 to 100 nM |
| CCC(=O)N1CCC(Cn2cc(COC(c3ccc(C)c(CN4C[C@@H](C)Oc5ccccc5S4(=O)=O)c3)C(C)(C)C(=O)O)nn2)CC1 (stereo partly drawn) [Example 33, 2,2-Dimethyl-3-(4-methyl-3-(((R)-4-methyl-1,1-dioxido-3,4-dihydro-2H-benzo[b][1,4,5]oxathiazepin-2-yl)methyl)phenyl)-3-((1-((1-propionylpiperidin-4-yl)methyl)-1H-1,2,3-triazol-4-yl)methoxy)propanoic acid] | 10 to 100 nM |
| CCCC(=O)N1CCC(Cn2cc(COC(c3ccc(C)c(CN4C[C@@H](C)Oc5ccccc5S4(=O)=O)c3)C(C)(C)C(=O)O)nn2)CC1 (stereo partly drawn) [Example 34, 3-((1-((1-Butyrylpiperidin-4-yl)methyl)-1H-1,2,3-triazol-4-yl)methoxy)-2,2-dimethyl-3-(4-methyl-3-(((R)-4-methyl-1,1-dioxido-3,4-dihydro-2H-benzo[b][1,4,5]oxathiazepin-2-yl)methyl)phenyl)propanoic acid] | 10 to 100 nM |
| Cc1ccc(C(OCc2cn(CC3CCN(C(=O)C4CCOCC4)CC3)nn2)C(C)(C)C(=O)O)cc1CN1C[C@@H](C)Oc2ccccc2S1(=O)=O (stereo partly drawn) [Example 35, 2,2-Dimethyl-3-(4-methyl-3-(((R)-4-methyl-1,1-dioxido-3,4-dihydro-2H-benzo[b][1,4,5]oxathiazepin-2-yl)methyl)phenyl)-3-((1-((1-(tetrahydro-2H-pyran-4-carbonyl)piperidin-4-yl)methyl)-1H-1,2,3-triazol-4-yl)methoxy)propanoic acid] | 100 to 1000 nM |
| Cc1ccc(C(OCc2cn(CC3CCN(S(C)(=O)=O)CC3)nn2)C(C)(C)C(=O)O)cc1CN1C[C@@H](C)Oc2ccccc2S1(=O)=O (stereo partly drawn) [Example 36, 2,2-Dimethyl-3-(4-methyl-3-(((R)-4-methyl-1,1-dioxido-3,4-dihydro-2H-benzo[b][1,4,5]oxathiazepin-2-yl)methyl)phenyl)-3-((1-((1-(methylsulfonyl)piperidin-4-yl)methyl)-1H-1,2,3-triazol-4-yl)methoxy)propanoic acid] | 10 to 100 nM |
| Cc1ccc(C(OCc2cn(Cc3cccc(Cn4cc(C(C)C)nn4)c3)nn2)C(C)(C)C(=O)O)cc1CN1C[C@@H](C)Oc2ccccc2S1(=O)=O (stereo partly drawn) [Example 37, 3-((1-(3-((4-Isopropyl-1H-1,2,3-triazol-1-yl)methyl)benzyl)-1H-1,2,3-triazol-4-yl)methoxy)-2,2-dimethyl-3-(4-methyl-3-(((R)-4-methyl-1,1-dioxido-3,4-dihydro-2H-benzo[b][1,4,5]oxathiazepin-2-yl)methyl)phenyl)propanoic acid] | 1 to 10 nM |
| CCc1cn(Cc2cccc(Cn3cc(COC(c4ccc(C)c(CN5C[C@@H](C)Oc6ccccc6S5(=O)=O)c4)C(C)(C)C(=O)O)nn3)c2)nn1 (some centres unmarked) [Example 38] | 10 to 100 nM |
| Cc1ccc(C(OCc2cn(Cc3cccc(Cn4cc(CO)nn4)c3)nn2)C(C)(C)C(=O)O)cc1CN1C[C@@H](C)Oc2ccccc2S1(=O)=O (stereo partly drawn) [Example 39, 3-((1-(3-((4-(Hydroxymethyl)-1H-1,2,3-triazol-1-yl)methyl)benzyl)-1H-1,2,3-triazol-4-yl)methoxy)-2,2-dimethyl-3-(4-methyl-3-(((R)-4-methyl-1,1-dioxido-3,4-dihydro-2H-benzo[b][1,4,5]oxathiazepin-2-yl)methyl)phenyl)propanoic acid] | 10 to 100 nM |
| Cc1ccc(C(OCc2cn(Cc3cccc(Cn4cc(CCO)nn4)c3)nn2)C(C)(C)C(=O)O)cc1CN1C[C@@H](C)Oc2ccccc2S1(=O)=O (stereo partly drawn) [Example 40, 3-((1-(3-((4-(2-Hydroxyethyl)-1H-1,2,3-triazol-1-yl)methyl)benzyl)-1H-1,2,3-triazol-4-yl)methoxy)-2,2-dimethyl-3-(4-methyl-3-(((R)-4-methyl-1,1-dioxido-3,4-dihydro-2H-benzo[b][1,4,5]oxathiazepin-2-yl)methyl)phenyl)propanoic acid] | 100 to 1000 nM |
| Cc1ccc(C(OCc2cn(Cc3cccc(Cn4cc(C(C)(C)O)nn4)c3)nn2)C(C)(C)C(=O)O)cc1CN1C[C@@H](C)Oc2ccccc2S1(=O)=O (stereo partly drawn) [Example 41, 3-((1-(3-((4-(2-Hydroxypropan-2-yl)-1H-1,2,3-triazol-1-yl)methyl)benzyl)-1H-1,2,3-triazol-4-yl)methoxy)-2,2-dimethyl-3-(4-methyl-3-(((R)-4-methyl-1,1-dioxido-3,4-dihydro-2H-benzo[b][1,4,5]oxathiazepin-2-yl)methyl)phenyl)propanoic acid] | 10 to 100 nM |
| Cc1ccc(C(OCc2cn(Cc3cccc(Cn4cc(CCCCO)nn4)c3)nn2)C(C)(C)C(=O)O)cc1CN1C[C@@H](C)Oc2ccccc2S1(=O)=O (stereo partly drawn) [Example 42, 3-((1-(3-((4-(4-Hydroxybutyl)-1H-1,2,3-triazol-1-yl)methyl)benzyl)-1H-1,2,3-triazol-4-yl)methoxy)-2,2-dimethyl-3-(4-methyl-3-(((R)-4-methyl-1,1-dioxido-3,4-dihydro-2H-benzo[b][1,4,5]oxathiazepin-2-yl)methyl)phenyl)propanoic acid] | 10 to 100 nM |
| Cc1ccc(C(OCc2cn(Cc3cccc(Cn4cc(C(=O)O)nn4)c3)nn2)C(C)(C)C(=O)O)cc1CN1C[C@@H](C)Oc2ccccc2S1(=O)=O (stereo partly drawn) [Example 43, 1-(3-((4-((2-Carboxy-2-methyl-1-(4-methyl-3-(((R)-4-methyl-1,1-dioxido-3,4-dihydro-2H-[b][1,4,5]oxathiazepin-2-yl)methyl)phenyl)propoxy)methyl)-1H-1,2,3-triazol-1-yl)methyl)benzyl)-1H-1,2,3-triazole-4-carboxylic acid] | 100 to 1000 nM |
| Cc1ccc(C(OCc2cn(Cc3cccc(Cn4cc(CC(=O)O)nn4)c3)nn2)C(C)(C)C(=O)O)cc1CN1C[C@@H](C)Oc2ccccc2S1(=O)=O (stereo partly drawn) [Example 44, 3-((1-(3-((4-(Carboxymethyl)-1H-1,2,3-triazol-1-yl)methyl)benzyl)-1H-1,2,3-triazol-4-yl)methoxy)-2,2-dimethyl-3-(4-methyl-3-(((R)-4-methyl-1,1-dioxido-3,4-dihydro-2H-benzo[b][1,4,5]oxathiazepin-2-yl)methyl)phenyl)propanoic acid] | 100 to 1000 nM |
